Consider 13 molecules from ChEMBL document CHEMBL5034014, “Melanocortin 1 Receptor Agonists Based on a Bivalent, Bicyclic Peptide Framework” (J Med Chem, 2021).

Bridge positions count the residues as written; N and C are the ends. Square brackets hold non-standard residues; d marks the D form. Peptide text beside a SMILES is read from it. NMeW = CN[C@@H](Cc1c[nH]c2ccccc12)C(=O)O; NMeR = CN[C@@H](CCCNC(=N)N)C(=O)O

Test [1] concerns the target T1, Melanocortin receptor 3 (Homo sapiens, UniProt P41968). Description: Displacement of [125I]-NDP-alpha-MSH from human MC3R expressed in HEK2936E cell membrane measured after 16-23 hrs by 1450 microbeta trilux scintillation proximity assay. The format is cell membranes. For orientation: In a radioligand displacement assay an active substance lowers the binding of a labelled ligand.

In test [2] the target is T2, Melanocortin receptor 4 (Homo sapiens, UniProt P32245). The test is described as follows: Agonist activity at human melanocortin receptor 4 expressed in human T-REx-293 cells using high doxycycline assessed as stimulation of intracellular cAMP accumulation incubated for 45 mins by LANCE cAMP assay. Type of test: functional. (Cyclic AMP is a second messenger, typically raised through Gs and lowered through Gi signalling.)

For test [3], the target named is T3, Melanocyte-stimulating hormone receptor (Homo sapiens, UniProt Q01726). The test is described as follows: Agonist activity at human melanocortin receptor 1 expressed in human T-Rex-293 cells assessed as stimulation of intracellular cAMP accumulation incubated for 45 mins by LANCE cAMP assay. Type of test: functional, cell-based.
Test [4] addresses Melanocortin receptor 5 (Homo sapiens, UniProt P33032). Description: Displacement of [125I]-NDP-alpha-MSH from human MC5R expressed in HEK2936E cell membrane measured after 16-23 hrs by 1450 microbeta trilux scintillation proximity assay. The format is cell membranes.
The target of test [5] is T2, Melanocortin receptor 4. The test is described as follows: Agonist activity at human melanocortin receptor 4 expressed in human T-REx-293 cells using low doxycycline assessed as stimulation of intracellular cAMP accumulation incubated for 45 mins by LANCE cAMP assay. Type of test: functional, cell-based.
The target of test [6] is T1, Melanocortin receptor 3. Description: Agonist activity at human melanocortin receptor 3 expressed in human T-REx-293 cells assessed as stimulation of intracellular cAMP accumulation incubated for 45 mins by LANCE cAMP assay. The format is functional, cell-based.
Test [7] concerns the target T2, Melanocortin receptor 4. The test is described as follows: Displacement of [125I]-NDP-alpha-MSH from human MC4R expressed in HEK2936E cell membrane measured after 16-23 hrs by 1450 microbeta trilux scintillation proximity assay. Type of test: cell membranes.
The target in test [8] is T3, Melanocyte-stimulating hormone receptor. Description: Displacement of [125I]-NDP-alpha-MSH from human MC1R expressed in HEK2936E cell membrane measured after 16-23 hrs by 1450 microbeta trilux scintillation proximity assay. The format is cell membranes.

Sequence of Melanocortin receptor 5 (P33032 whole entry): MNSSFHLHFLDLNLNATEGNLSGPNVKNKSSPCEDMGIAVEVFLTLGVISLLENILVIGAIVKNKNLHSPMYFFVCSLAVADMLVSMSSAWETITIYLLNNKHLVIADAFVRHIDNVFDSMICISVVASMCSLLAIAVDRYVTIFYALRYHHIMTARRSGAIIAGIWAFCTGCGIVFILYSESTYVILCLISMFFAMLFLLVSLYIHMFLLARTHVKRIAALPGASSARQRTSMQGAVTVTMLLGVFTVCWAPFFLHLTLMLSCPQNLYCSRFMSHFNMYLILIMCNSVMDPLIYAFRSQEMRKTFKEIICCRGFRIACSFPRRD
T1 sequence (P41968 whole entry): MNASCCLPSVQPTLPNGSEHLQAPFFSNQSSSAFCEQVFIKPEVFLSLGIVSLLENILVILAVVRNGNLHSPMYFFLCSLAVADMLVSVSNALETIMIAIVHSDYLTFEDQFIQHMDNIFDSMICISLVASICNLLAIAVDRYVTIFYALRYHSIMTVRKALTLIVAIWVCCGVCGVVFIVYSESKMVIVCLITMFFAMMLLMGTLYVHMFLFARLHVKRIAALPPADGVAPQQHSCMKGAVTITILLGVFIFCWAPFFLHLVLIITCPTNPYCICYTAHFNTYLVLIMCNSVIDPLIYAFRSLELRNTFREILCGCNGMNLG
T2 sequence (P32245 whole entry): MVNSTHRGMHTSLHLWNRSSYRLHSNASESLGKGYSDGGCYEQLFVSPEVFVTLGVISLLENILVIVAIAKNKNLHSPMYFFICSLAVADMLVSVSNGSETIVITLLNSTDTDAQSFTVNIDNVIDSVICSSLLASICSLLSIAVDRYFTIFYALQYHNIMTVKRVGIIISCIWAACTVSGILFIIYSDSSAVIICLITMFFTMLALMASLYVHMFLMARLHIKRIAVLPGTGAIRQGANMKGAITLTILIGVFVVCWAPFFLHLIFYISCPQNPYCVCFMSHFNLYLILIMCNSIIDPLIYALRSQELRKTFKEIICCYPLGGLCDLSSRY
T3 sequence (Q01726 whole entry): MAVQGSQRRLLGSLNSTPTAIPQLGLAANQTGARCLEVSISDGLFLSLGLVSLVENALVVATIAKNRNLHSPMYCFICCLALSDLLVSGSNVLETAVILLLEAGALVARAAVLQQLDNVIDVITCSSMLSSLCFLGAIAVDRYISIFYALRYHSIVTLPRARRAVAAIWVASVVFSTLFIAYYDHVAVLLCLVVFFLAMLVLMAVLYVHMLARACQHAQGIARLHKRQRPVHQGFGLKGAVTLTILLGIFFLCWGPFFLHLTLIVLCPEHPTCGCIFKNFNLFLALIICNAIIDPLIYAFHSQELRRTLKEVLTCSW

Take `CC[C@H](C)[C@@H]1NC(=O)[C@@H]2CCCN2C(=O)[C@@H]2CCCN2C(=O)[C@H]([C@@H](C)CC)NC(=O)[C@H](CO)NC(=O)[C@H](C)NC(=O)[C@H]([C@@H](C)O)NC(=O)[C@@H]2CSSC[C@H](NC1=O)C(=O)N[C@@H](Cc1c[nH]cn1)C(=O)N[C@H](Cc1ccccc1)C(=O)N(C)[C@@H](CCCNC(=N)N)C(=O)N(C)[C@@H](Cc1c[nH]c3ccccc13)C(=O)N[C@@H](CCCNC(=N)N)C(=O)N2` (cyclo(CTASIPPICH[dF][NMeR][NMeW]R); disulfide 1-9): the Ki in test [1] and in test [7] was over 1000 nM in each case. The concentration giving a half-maximal response (EC50) in test [2] was 58.9 nM; in test [3], 0.759 nM; in test [5] it was over 1000 nM; in test [6], 129 nM. In addition, the IC50 in test [4] was 724 nM.

`CC(=O)N[C@H]1CSSC[C@@H](C(N)=O)NC(=O)[C@H](CCCNC(=N)N)NC(=O)[C@H](Cc2c[nH]c3ccccc23)N(C)C(=O)[C@H](CCCNC(=N)N)N(C)C(=O)[C@H](Cc2ccccc2)NC(=O)[C@H](Cc2c[nH]cn2)NC1=O` (Ac-CHF[NMeR][NMeW]RC-NH2; disulfide 1-7): the Ki was 3160 nM in test [1], 56.2 nM in test [8] and 2040 nM in test [7]. Moreover, the EC50 in test [2] was 63.1 nM; in test [3], 5.5 nM; in test [5], 3630 nM; in test [6], 398 nM. Further, the IC50 in test [4] was 10000 nM.

Regarding `CC[C@H](C)[C@@H]1NC(=O)[C@@H]2CCCN2C(=O)[C@H](Cc2c[nH]c3ccccc23)NC(=O)[C@H](CCCNC(=N)N)N(C)C(=O)[C@@H](Cc2ccccc2)NC(=O)[C@H](Cc2c[nH]cn2)NC(=O)[C@H](CC(=O)O)NC(=O)[C@@H]2CSSC[C@H](NC1=O)C(=O)N[C@@H](Cc1c[nH]cn1)C(=O)N[C@H](Cc1ccccc1)C(=O)N(C)[C@@H](CCCNC(=N)N)C(=O)N(C)[C@@H](Cc1c[nH]c3ccccc13)C(=O)N[C@@H](Cc1ccc(O)cc1)C(=O)N2`, the Ki was 891 nM in test [1], 0.708 nM in test [8] and 355 nM in test [7]. Besides, the EC50 in test [2] was 4.27 nM; in test [3], 0.0646 nM; in test [5], 85.1 nM; in test [6] it was 18.2 nM. In addition, the IC50 in test [4] was 1230 nM.

With `CC[C@H](C)[C@@H]1NC(=O)[C@@H]2CCCN2C(=O)[C@H](Cc2c[nH]c3ccccc23)NC(=O)[C@H](CCCNC(=N)N)N(C)C(=O)[C@@H](Cc2ccccc2)NC(=O)[C@H](Cc2c[nH]cn2)NC(=O)[C@H]([C@@H](C)O)NC(=O)[C@@H]2CSSC[C@H](NC1=O)C(=O)N[C@@H](Cc1c[nH]cn1)C(=O)N[C@H](Cc1ccccc1)C(=O)N[C@@H](CCCNC(=N)N)C(=O)N[C@@H](Cc1ccc3ccccc3c1)C(=O)N[C@@H](C)C(=O)N2`, the Ki was 50.1 nM in test [1], 0.724 nM in test [8] and 8.13 nM in test [7]. Besides, the EC50 is 0.275 nM in test [2], over 0.0501 nM in test [3], 2.69 nM in test [5] and 2.19 nM in test [6]. For the same molecule, the IC50 in test [4] is 89.1 nM.

For the molecule `CC[C@H](C)[C@@H]1NC(=O)[C@@H]2CCCN2C(=O)[C@H](Cc2c[nH]c3ccccc23)NC(=O)[C@H](CCCNC(=N)N)N(C)C(=O)[C@@H](Cc2ccccc2)NC(=O)[C@H](Cc2c[nH]cn2)NC(=O)[C@H]([C@@H](C)O)NC(=O)[C@@H]2CSSC[C@H](NC1=O)C(=O)N[C@@H](Cc1c[nH]cn1)C(=O)N[C@@H](C)C(=O)N[C@@H](CCCNC(=N)N)C(=O)N[C@@H](Cc1c[nH]c3ccccc13)C(=O)N[C@@H](CCCNC(=N)N)C(=O)N2`, the Ki in test [1] is 389 nM; in test [8] it was 2.82 nM; in test [7], 10.7 nM. Further, the EC50 is 0.302 nM in test [2], 0.794 nM in test [3], 3.47 nM in test [5] and 6.61 nM in test [6]. This molecule gave an IC50 in test [4] of 676 nM.

Take `C[C@@H]1NC(=O)[C@H](Cc2c[nH]c3ccccc23)NC(=O)[C@H](CCCNC(=N)N)NC(=O)[C@@H](Cc2ccccc2)NC(=O)[C@H](Cc2c[nH]cn2)NC(=O)[C@@H]2CSSC[C@H](NC1=O)C(=O)N[C@@H]([C@@H](C)O)C(=O)N[C@@H](Cc1c[nH]cn1)C(=O)N[C@H](Cc1ccccc1)C(=O)N(C)[C@@H](CCCNC(=N)N)C(=O)N[C@@H](Cc1c[nH]c3ccccc13)C(=O)N1CCC[C@H]1C(=O)N[C@@H](Cc1ccccc1)C(=O)N2`: the figures for the inhibition constant Ki in test [1], in test [8] and in test [7] were 302 nM, 3.98 nM and 36.3 nM, respectively. In addition, the half-maximal effective concentration (EC50) is 0.537 nM in test [2], 0.692 nM in test [3], 6.76 nM in test [5] and 6.61 nM in test [6]. The molecule further gave an IC50 in test [4] of 513 nM.

Consider `CC[C@H](C)[C@@H]1NC(=O)[C@@H]2CCCN2C(=O)[C@H](Cc2c[nH]c3ccccc23)NC(=O)[C@H](CCCNC(=N)N)N(C)C(=O)[C@@H](Cc2ccccc2)NC(=O)[C@H](Cc2c[nH]cn2)NC(=O)[C@H]([C@@H](C)O)NC(=O)[C@@H]2CSSC[C@H](NC1=O)C(=O)N[C@@H](Cc1c[nH]cn1)C(=O)N[C@H](Cc1ccccc1)C(=O)N[C@@H](CCCNC(=N)N)C(=O)N[C@@H](C)C(=O)N[C@@H](CCCNC(=N)N)C(=O)N2`, for which the Ki was 891 nM in test [1], 1.55 nM in test [8] and 50.1 nM in test [7]. Further, the EC50 in test [2] was 1.2 nM; in test [3], 0.427 nM; in test [5], 28.2 nM; in test [6] it was 16.2 nM. Further, the IC50 in test [4] was 1780 nM.

With `CC[C@H](C)[C@@H]1NC(=O)[C@@H]2CCCN2C(=O)[C@H](Cc2c[nH]c3ccccc23)NC(=O)[C@H](CCCNC(=N)N)N(C)C(=O)[C@@H](Cc2ccc3ccccc3c2)NC(=O)[C@@H]2CCCN2C(=O)[C@H](Cc2c[nH]c3ccccc23)NC(=O)[C@@H]2CSSC[C@H](NC1=O)C(=O)N[C@@H](Cc1c[nH]cn1)C(=O)N[C@H](Cc1ccccc1)C(=O)N[C@@H](CCCNC(=N)N)C(=O)N[C@@H](Cc1c[nH]c3ccccc13)C(=O)N[C@@H](C)C(=O)N2`, the Ki in test [1] is 407 nM; in test [8], 9.77 nM; in test [7], 7.94 nM. Further, the EC50 is 1.05 nM in test [2], 1.55 nM in test [3], 31.6 nM in test [5] and 13.5 nM in test [6]. In test [4], this molecule had an IC50 of 204 nM.

With `CC[C@H](C)[C@@H]1NC(=O)[C@@H]2CCCN2C(=O)[C@H](Cc2c[nH]c3ccccc23)NC(=O)[C@H](CCCNC(=N)N)NC(=O)[C@@H](Cc2ccccc2)NC(=O)[C@H](Cc2c[nH]cn2)NC(=O)[C@H]([C@@H](C)O)NC(=O)[C@@H]2CSSC[C@H](NC1=O)C(=O)N[C@@H](Cc1c[nH]cn1)C(=O)N[C@H](Cc1ccccc1)C(=O)N[C@@H](CCCNC(=N)N)C(=O)N[C@@H](Cc1c[nH]c3ccccc13)C(=O)N[C@@H](CCCNC(=N)N)C(=O)N2`, the Ki in test [1] is 269 nM; in test [8], 1.48 nM. The results for the EC50 in test [3] and in test [6] were 0.138 nM and 17.4 nM, respectively. Also, the IC50 in test [4] is 174 nM.

Turning to `CC[C@H](C)[C@@H]1NC(=O)[C@@H]2CCCN2C(=O)[C@H](Cc2c[nH]c3ccccc23)NC(=O)[C@H](CCCNC(=N)N)N(C)C(=O)[C@@H](Cc2ccccc2)NC(=O)[C@H](Cc2c[nH]cn2)NC(=O)[C@H]([C@@H](C)O)NC(=O)[C@@H]2CSSC[C@H](NC1=O)C(=O)N[C@@H](Cc1c[nH]cn1)C(=O)N[C@H](Cc1ccccc1)C(=O)N[C@@H](CCCNC(=N)N)C(=O)N[C@@H](Cc1c[nH]c3ccccc13)C(=O)N[C@@H](CCCNC(=N)N)C(=O)N2`, the Ki in test [1] was 389 nM; in test [8], 1.12 nM. The EC50 in test [3] was 0.135 nM; in test [6] it was 7.76 nM. The same molecule showed an IC50 in test [4] of 174 nM.

`CCCC[C@H](NC(C)=O)C(=O)N[C@H]1CC(=O)NCCCC[C@@H](C(=O)O)NC(=O)[C@H](Cc2c[nH]c3ccccc23)NC(=O)[C@H](CCCN=C(N)N)NC(=O)[C@@H](Cc2ccccc2)NC(=O)[C@H](Cc2cnc[nH]2)NC1=O` [BREMELANOTIDE]: the EC50 in test [3] was […].

`CC[C@H](C)[C@@H]1NC(=O)[C@@H]2CCCN2C(=O)[C@H](Cc2c[nH]c3ccccc23)NC(=O)[C@H](CCCNC(=N)N)N(C)C(=O)[C@@H](Cc2ccc3ccccc3c2)NC(=O)[C@@H]2CCCN2C(=O)[C@@H]2CCCN2C(=O)[C@@H]2CSSC[C@H](NC1=O)C(=O)N[C@@H](Cc1c[nH]cn1)C(=O)N[C@H](Cc1ccccc1)C(=O)N[C@@H](CCCNC(=N)N)C(=O)N[C@@H](Cc1c[nH]c3ccccc13)C(=O)N[C@@H](C)C(=O)N2`: the values for the Ki in test [1] and in test [8] were 100 nM and 3.72 nM, respectively. The values for the EC50 in test [3] and in test [6] were 1.32 nM and 15.8 nM, respectively. In test [4], this molecule gave an IC50 of 129 nM.

As to `C[C@@H]1NC(=O)[C@H](Cc2c[nH]c3ccccc23)NC(=O)[C@H](CCCNC(=N)N)NC(=O)[C@@H](Cc2ccccc2)NC(=O)[C@H](Cc2c[nH]cn2)NC(=O)[C@@H]2CSSC[C@H](NC1=O)C(=O)N[C@@H]([C@@H](C)O)C(=O)N[C@@H](Cc1c[nH]cn1)C(=O)N[C@H](Cc1ccccc1)C(=O)N(C)[C@@H](CCCNC(=N)N)C(=O)N[C@@H](Cc1c[nH]c3ccccc13)C(=O)N1CCC[C@H]1C(=O)N[C@@H](C)C(=O)N2`, the Ki was 135 nM in test [1] and 8.13 nM in test [8]. Further, the results for the EC50 in test [3] and in test [6] were 1.07 nM and 4.07 nM, respectively. This molecule showed an IC50 in test [4] of 550 nM.

By Ki is commonly meant a measure of affinity in units of concentration, obtained from inhibition or displacement. A lower Ki goes with a stronger hold on the target. A word on the EC50: it is the midpoint of the concentration-response curve. Usually IC50 stands for the concentration needed to halve the response being measured.
